Laboratory results from patent publication US4603217A, “Ester substituted alkyl-2-(2,6-dichloroanilino)phenyl acetates” (priority 1983, dated 1986).

Key:
[1] = potentiating effect on thiopental-induced sleep in mice; assay type: in vivo, male ddY mice; settings: mouse, in vivo, po
Protocol: (§1) Effect on central nervous system, which is another side effect of IM, was investigated according to the potentiating effect on thiopental-induced sleep in mice as follows: Male ddY mice weighing 20 to 24 g were subjected to fasting for 15 hrs. […] At 30 mins after the administration, thiopental sodium was injected intravenously to each of the mice in an amount of 35 mg/l kg body weight, and then, the sleeping time was observed. When the sleeping time of the mice to which the Test Compound was administered was longer than 2 times that of the control to which only Tween-80 was administered, the given Test Compound was judged to be effective on thiopental-induced sleep potentiating effect.

thiopental-induced sleep = test: as above; assay type: in vivo, male ddY mice; settings: mouse, in vivo
Protocol: as §1

[2] = Rate of hydrolysis in rat plasma; assay type: in vitro ADME; settings: in 1 ml of plasma rat (37° C., incubation for 1 hr)
Protocol: **in 1 ml of plasma rat (37° C., incubation for 1 hr)

ultraviolet erythema = test: inhibition action for ultraviolet erythema; assay type: in vivo, male Hartley guinea pigs; parameters: 2 hs after the irradiation, Average ± standard error / 3 hs after the irradiation, Average ± standard error / 5 hs after the irradiation, Average ± standard error: scale not given here; 2 hs after the irradiation, Rate for inhibition / 3 hs after the irradiation, Rate for inhibition / 5 hs after the irradiation, Rate for inhibition: unit not given here; settings: guinea pigs; for 2 hs after the irradiation, Average ± standard error / 2 hs after the irradiation, Rate for inhibition: 2 hs after irradiation; for 3 hs after the irradiation, Average ± standard error / 3 hs after the irradiation, Rate for inhibition: 3 hs after irradiation; for 5 hs after the irradiation, Average ± standard error / 5 hs after the irradiation, Rate for inhibition: 5 hs after irradiation
Protocol: With respect to Compounds 1 to 3, 15 and 21 which are especially useful as an anti-inflammatory drug, IM and DF, inhibition action for ultraviolet erythema was investigated according to the method of Adames et al [cf. Nature, London, 181, 773 (1958)] using guinea pigs as follows: Male Hartley guinea pigs weighing 250 to 350 g were shaved at their sides the day before and two hrs before the ultraviolet irradiation. To the guinea pigs were administered orally Compounds 1 to 3, 15 and 21, IM and DF in amounts as described in Table 2, respectively. To the control group was administered orally only Tween-80. At 1 hr after the time of administration, the guinea pigs were irradiated at their shaved sides by ultraviolet beam for 40 seconds.
The reaction of the ultraviolet erythema was evaluated at 2 hrs, 3 hrs and 5 hrs after irradiation according to the method of Winder et al [cf. Arch. Int. Pharmacodyn., 116, 261 (1958)]. […] Compounds 1 and 2 show a duration of the pharmacological effect over 5 hrs, contrary to that IM has a duration of 2 hrs.

carrageenan edema = test: inhibition test of carrageenan edema employing a foot-pad edema method; assay type: in vivo, male Wister rats; settings: for ED50: Rattus norvegicus, male Wister rats, foot-pad edema, read-out: ED50 for inhibition for carrageenan edema
From the text: Anti-inflammatory action was investigated according to the method of Winter et al [cf. Pro. Soc. Exp. Biol. Med., 111, 544 (1962)] by the inhibition test of carrageenan edema employing a foot-pad edema method using carrageenan as an irritating agent and male Wister rats weighing 130 to 170 g.

in vivo [3] = settings: rat, po
Protocol: Gastrointestinal ulcer formation action, which is a principal side effect of an acid anti-inflammatory drug, was investigated according to the method of Okabe et al [cf. […] The compounds of the present invention, IM, DF and acemethacin were suspended in 5% Tween-80 solution and administered orally 1 ml/100 g body weight to the rats, respectively. At 6 hrs after the administration, the state of glandstomach was observed by means of a dissecting microscope whether the ulcer having a diameter more than 1 mm was generated or not.

in vivo [4] = settings: mouse, po

Row | SMILES | ED50 [1] [mg/kg] | potentiating effect on thiopental-induced sleep relative to IM (thiopental-induced sleep) | metabolised at 1 h [2] [%] | 2 hs after the irradiation, Average ± standard error (ultraviolet erythema; 3 mg/kg orally) | 2 hs after the irradiation, Rate for inhibition (ultraviolet erythema; 3 mg/kg orally) | 3 hs after the irradiation, Average ± standard error (ultraviolet erythema; 3 mg/kg orally) | 3 hs after the irradiation, Rate for inhibition (ultraviolet erythema; 3 mg/kg orally) | 5 hs after the irradiation, Average ± standard error (ultraviolet erythema; 3 mg/kg orally) | 5 hs after the irradiation, Rate for inhibition (ultraviolet erythema; 3 mg/kg orally) | 2 hs after the irradiation, Average ± standard error (ultraviolet erythema; 10 mg/kg orally) | 2 hs after the irradiation, Rate for inhibition (ultraviolet erythema; 10 mg/kg orally) | 3 hs after the irradiation, Average ± standard error (ultraviolet erythema; 10 mg/kg orally) | 3 hs after the irradiation, Rate for inhibition (ultraviolet erythema; 10 mg/kg orally) | 5 hs after the irradiation, Average ± standard error (ultraviolet erythema; 10 mg/kg orally) | 5 hs after the irradiation, Rate for inhibition (ultraviolet erythema; 10 mg/kg orally) | duration of the pharmacological effect (ultraviolet erythema; ultraviolet erythema, oral) | ED50 (carrageenan edema) [mg/kg] | anti-inflammatory activity compared with IM (carrageenan edema; relative to IM) | TD50 at 6 h (in vivo [3]) [mg/kg] | LD50 (in vivo [4]) [mg/kg]
1 | C/C=C/C(=O)OCOC(=O)Cc1c(C)n(C(=O)c2ccc(Cl)cc2)c2ccc(OC)cc12 [Compound 1, Crotonoyloxymethyl[1-(p-chlorobenzoyl)-5-methoxy-2-methyl-3-indolyl]acetate] | 455 | 1/4.3 | 88.9 | 1.50 ± 0.337 | 43.8 | 2.08 ± 0.193 | 26.5 | 1.92 ± 0.193 | 32.2 | 1.17 ± 0.322 | 56.2 | 1.58 ± 0.288 | 44.2 | 1.92 ± 0.229 | 32.2 | over 5 hrs | 6 | equal anti-inflammatory activity to IM | 15 | 105
2 | COc1ccc2c(c1)c(CC(=O)OCCOC(C)=O)c(C)n2C(=O)c1ccc(Cl)cc1 [Compound 3, 2-(Acetoxy)ethyl[1-(p-chlorobenzoyl)-5-methoxy-2-methyl-3-indolyl]acetate] | 600 | 1/5.7 | 97.3 | 0.5 ± 0.224 | 81.3 | 2.5 ± 0.224 | 11.7 | 2.83 ± 0.167 | 0 | 0.67 ± 0.333 | 74.9 | 2.3 ± 0.211 | 18.7 | 2.50 ± 0.224 | 11.7 | – | 6 | – | 15 | 65
